Patent US7326534B2, “Detection of gleevec resistant mutations” (Oregon Health and Science University, priority 2001, dated 2008)

Test system: Src family kinases
Experiment: inhibition of tyrosine kinase
Assay type: biochemical
From the text: […]. […] […]. […] […]

inhibition of kinase (in words): not
Compound: Cc1ccc(NC(=O)c2ccc(CN3CCN(C)CC3)cc2)cc1Nc1nccc(-c2cccnc2)n1 [STI571, N-[4-methyl-3-(4-pyridin-3-yl-pyrimidin-2-ylamino)-phenyl]-4-(4-methyl-piperazin-1-ylmethyl)-benzamide]
